Earlier results in US20220401449A1, “COMPOSITIONS PROVIDING SLOW RELEASE OF CAFFEINE AND BEVERAGES COMPRISING THE SAME” (priority 2021, published 2022).
Like-named read-outs stand apart in the source and are kept apart here.

For `Cn1c(=O)c2c(ncn2C)n(C)c1=O` [caffeine], the “caffeine's saturation concentration in water” value (80° C.) is given as “about 200 mg/ml” and the “caffeine's saturation concentration in water” value (room temperature) is given as “about 16 mg/ml”.
